Laboratory results as given in patent US20260325540A1 (priority 2023, published 2026).
pIC50: −log10 of the molar value.

Target: HCoV-229E 3CL protease (Human coronavirus 229E, UniProt P0C6U2)
Experiment: FRET based protease assay, HCoV-229E 3CL
Format: biochemical
Conditions: 229E IC50, 6 nM H229E-CoV Chis-3CLpro, 6 μM peptide 1 substrate, 25° C., 1.5 hrs, pH 7.5

HCoV-229E 3CL protease, sequence (P0C6U2 2966-3267): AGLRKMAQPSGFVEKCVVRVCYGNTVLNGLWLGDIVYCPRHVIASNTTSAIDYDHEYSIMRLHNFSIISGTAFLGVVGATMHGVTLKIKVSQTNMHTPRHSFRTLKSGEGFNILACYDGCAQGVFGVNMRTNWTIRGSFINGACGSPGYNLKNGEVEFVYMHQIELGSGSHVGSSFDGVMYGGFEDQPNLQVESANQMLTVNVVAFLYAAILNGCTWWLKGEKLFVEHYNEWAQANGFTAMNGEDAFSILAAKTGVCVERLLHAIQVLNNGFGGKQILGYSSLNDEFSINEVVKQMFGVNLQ

| SMILES | pIC50 |
| --- | --- |
| CC1(C)[C@@H]2[C@H]3C(=O)N[C@H](C#N)C[C@@H]4C(=O)NC[C@@H]4CCCC[C@H](N)C(=O)N3C[C@@H]21 [Example 161] | > 7.00 |
| CC1(C)[C@@H]2[C@H]3C(=O)N[C@H](C#N)C[C@@H]4C(=O)NC[C@@H]4CCCC[C@H](Nc4nccc(C(F)(F)F)n4)C(=O)N3C[C@@H]21 [Example 162] | > 7.00 |
| CC1(C)[C@@H]2[C@H]3C(=O)N[C@H](C#N)C[C@@H]4C(=O)NC[C@@H]4CCCC[C@H](Nc4cc(C(F)(F)F)ncn4)C(=O)N3C[C@@H]21 [Example 163] | > 7.00 |
| CC1(C)[C@@H]2[C@H]3C(=O)N[C@H](C#N)C[C@@H]4C(=O)NC[C@@H]4CCCC[C@H](Nc4ccnc(C(F)(F)F)n4)C(=O)N3C[C@@H]21 [Example 164] | > 7.00 |
| N#C[C@@H]1C[C@@H]2C(=O)NC[C@@H]2CCCC[C@H](Nc2nccc(C(F)(F)F)n2)C(=O)N2C[C@@H]3CCC[C@@H]3[C@H]2C(=O)N1 [Example 165] | 6.00 to 7.00 |
| CC(C)(C)NC(=O)[C@@H]1CCCC[C@H]2CNC(=O)[C@H]2C[C@@H](C#N)NC(=O)[C@@H]2[C@@H]3[C@H](CN2C1=O)C3(C)C [Example 166] | 4.70 to 6.00 |
| CC(C)(C)NC(=O)[C@H]1CCCC[C@H]2CNC(=O)[C@H]2C[C@@H](C#N)NC(=O)[C@@H]2[C@@H]3[C@H](CN2C1=O)C3(C)C [Example 167] | 6.00 to 7.00 |
| CC(C)(C)OC(=O)NN1CCCC[C@H]2CNC(=O)[C@H]2C[C@@H](C#N)NC(=O)[C@@H]2[C@@H]3[C@H](CN2C1=O)C3(C)C [Example 168] | 4.70 to 6.00 |
